Assay results reported in patent publication US10364212B2 (F.I.S.—FABBRICA ITALIANA SINTETICI S.P.A., priority 2016, dated 2019).
Several values for one entry are separate records, joined by “and”; a condition that tells them apart may be missing. Equal values may be shown once. Entries after “also recorded” stand apart in the source; their conditions may differ.

Columns and labels:
Format in all cases: physicochemical
[1] = Kinetic solubility study in water, HPLC area of Enclomiphene peak;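 on HPLC a/a: suspension in 24 mL Water and the filtered mother liquor analysed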;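 on average HPLC a/a: suspension in 24 mL Water and the filtered mother liquor analysed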
Procedure: (§1) The filtered solid was analyzed by XRPD.
These HPLC conditions were used to perform solubility analysis.

[2] = Kinetic solubility study at pH 4.5 (acetic acid/sodium acetate buffer), HPLC area
Procedure: as §1
Solubility at a slightly acid medium was determined at pH 4.5 buffer used was a mixture acetic acid/sodium acetate prepared according to USP specifications. […]

[3] = Hygroscopicity by DVS (Dynamic Vapour Sorption); conditions: for water uptake / moisture sorption: at 95% RH (0-95% RH); for hygroscopicity, comparison of batches 722 and 723: between 0 and 65% RH
Procedure: This is a gravimetric technique that measures how much water is absorbed or desorbed by a sample at different relative humidity (RH). At each RH, the sample mass must be allowed to reach gravimetric equilibrium (or surpassed time limit) before progressing to the next humidity level. Sorption and desorption isotherms will be performed at 25° C. over a range of 0-95% RH. The type of sorption isotherm is determined by the pore size and surface character of the material.

CCN(CC)CCOc1ccc(/C(=C(/Cl)c2ccccc2)c2ccccc2)cc1.O=C(O)CC(O)(CC(=O)O)C(=O)O [Enclomiphene citrate having needle crystals] [Ethanamine, 2-[4-[(1E)-2-chloro-1,2-diphenylethenyl]phenoxy]-N,N-diethyl-, 2-hydroxy-1,2,3-propanetricarboxylate (1:1)]
average HPLC a/a ([1]; 0 min): 0 a/a
HPLC a/a ([1]; 0 min, replicate 1): 0 a/a
HPLC a/a ([1]; 0 min, replicate 2): 0 a/a
HPLC a/a ([1]; 0 min, replicate 3): 0 a/a
average HPLC a/a ([1]; 15 min): 5152 a/a
HPLC a/a ([1]; 15 min, replicate 1): 4099 a/a
HPLC a/a ([1]; 15 min, replicate 2): 6104 a/a
HPLC a/a ([1]; 15 min, replicate 3): 3273 a/a
average HPLC a/a ([1]; 45 min): 4962 a/a
HPLC a/a ([1]; 45 min, replicate 1): 5206 a/a
HPLC a/a ([1]; 45 min, replicate 2): 5457 a/a
HPLC a/a ([1]; 45 min, replicate 3): 3225 a/a
average HPLC a/a ([1]; 90 min): 5334 a/a
HPLC a/a ([1]; 90 min, replicate 1): 5085 a/a
HPLC a/a ([1]; 90 min, replicate 2): 5426 a/a
HPLC a/a ([1]; 90 min, replicate 3): 2988 a/a
average HPLC a/a ([1]; 180 min): 4126 a/a
HPLC a/a ([1]; 180 min, replicate 1): 4120 a/a
HPLC a/a ([1]; 180 min, replicate 2): 5327 a/a
HPLC a/a ([1]; 180 min, replicate 3): 3208 a/a
solubility in water compared with Enclomiphene citrate having non-needle shaped crystal habit ([1]; listed as Enclomiphene citrate having needle shaped crystal habit): almost double; also recorded: almost two times
Average a/a ([2]; pH 4.5, 0 min): 0 a/a
HPLC a/a ([2]; pH 4.5, 0 min, replicate 1): 0 a/a
HPLC a/a ([2]; pH 4.5, 0 min, replicate 2): 0 a/a
Average a/a ([2]; pH 4.5, 15 min): 4135 a/a
HPLC a/a ([2]; pH 4.5, 15 min, replicate 1): 3941 a/a
HPLC a/a ([2]; pH 4.5, 15 min, replicate 2): 4330 a/a
Average a/a ([2]; pH 4.5, 45 min): 4024 a/a
HPLC a/a ([2]; pH 4.5, 45 min, replicate 1): 3978 a/a
HPLC a/a ([2]; pH 4.5, 45 min, replicate 2): 4070 a/a
Average a/a ([2]; pH 4.5, 90 min): 5109 a/a
HPLC a/a ([2]; pH 4.5, 90 min, replicate 1): 4889 a/a
HPLC a/a ([2]; pH 4.5, 90 min, replicate 2): 5329 a/a
Average a/a ([2]; pH 4.5, 180 min): 5079 a/a
HPLC a/a ([2]; pH 4.5, 180 min, replicate 1): 5098 a/a
HPLC a/a ([2]; pH 4.5, 180 min, replicate 2): 5060 a/a
solubility at pH 4.5 compared with Enclomiphene citrate having non-needle crystals ([2]; pH 4.5 buffer, listed as Enclomiphene citrate having needle shaped crystal habit): four times higher
water uptake / moisture sorption ([3]; DVS, 25° C., listed as batch 723): 2.33 % weight and 2.3 % weight
hygroscopicity, comparison of batches 722 and 723 ([3]; DVS): identical

CCN(CC)CCOc1ccc(/C(=C(/Cl)c2ccccc2)c2ccccc2)cc1.O=C(O)CC(O)(CC(=O)O)C(=O)O [Enclomiphene citrate having non-needle crystals] [Ethanamine, 2-[4-[(1E)-2-chloro-1,2-diphenylethenyl]phenoxy]-N,N-diethyl-, 2-hydroxy-1,2,3-propanetricarboxylate (1:1), reference compound]
average HPLC a/a ([1]; 0 min): 0 a/a
HPLC a/a ([1]; 0 min, replicate 1): 0 a/a
HPLC a/a ([1]; 0 min, replicate 2): 0 a/a
HPLC a/a ([1]; 0 min, replicate 3): 0 a/a
average HPLC a/a ([1]; 15 min): 2858 a/a
HPLC a/a ([1]; 15 min, replicate 1): 1819 a/a
HPLC a/a ([1]; 15 min, replicate 2): 3483 a/a
HPLC a/a ([1]; 15 min, replicate 3): 3273 a/a
average HPLC a/a ([1]; 45 min): 3226 a/a
HPLC a/a ([1]; 45 min, replicate 1): 3083 a/a
HPLC a/a ([1]; 45 min, replicate 2): 3370 a/a
HPLC a/a ([1]; 45 min, replicate 3): 3225 a/a
average HPLC a/a ([1]; 90 min): 2772 a/a
HPLC a/a ([1]; 90 min, replicate 1): 3229 a/a
HPLC a/a ([1]; 90 min, replicate 2): 2099 a/a
HPLC a/a ([1]; 90 min, replicate 3): 2988 a/a
average HPLC a/a ([1]; 180 min): 3265 a/a
HPLC a/a ([1]; 180 min, replicate 1): 2991 a/a
HPLC a/a ([1]; 180 min, replicate 2): 3597 a/a
HPLC a/a ([1]; 180 min, replicate 3): 3208 a/a
Average a/a ([2]; pH 4.5, 0 min): 0 a/a
HPLC a/a ([2]; pH 4.5, 0 min, replicate 1): 0 a/a
HPLC a/a ([2]; pH 4.5, 0 min, replicate 2): 0 a/a
Average a/a ([2]; pH 4.5, 15 min): 1185 a/a
HPLC a/a ([2]; pH 4.5, 15 min, replicate 1): 1294 a/a
HPLC a/a ([2]; pH 4.5, 15 min, replicate 2): 1077 a/a
Average a/a ([2]; pH 4.5, 45 min): 924 a/a
HPLC a/a ([2]; pH 4.5, 45 min, replicate 1): 907 a/a
HPLC a/a ([2]; pH 4.5, 45 min, replicate 2): 941 a/a
Average a/a ([2]; pH 4.5, 90 min): 1095 a/a
HPLC a/a ([2]; pH 4.5, 90 min, replicate 1): 1279 a/a
HPLC a/a ([2]; pH 4.5, 90 min, replicate 2): 912 a/a
Average a/a ([2]; pH 4.5, 180 min): 1052 a/a
HPLC a/a ([2]; pH 4.5, 180 min, replicate 1): 1008 a/a
HPLC a/a ([2]; pH 4.5, 180 min, replicate 2): 1096 a/a
water uptake / moisture sorption ([3]; DVS, 25° C., listed as batch 722): 6 % weight
moisture sorption ([3]; DVS, 25° C., between 0% and 65% RH): 2 % weight
hygroscopicity, comparison of batches 722 and 723 ([3]; DVS): identical
water absorption at high humidity ([3]; humidity higher than 65% RH (FIG. 9)): absorbs relevant amounts of water
